Measurements published in ChEMBL document CHEMBL1150849, “Antiprotozoal activity of the constituents of Conyza filaginoides” (J Nat Prod, 2001).
Values after ≈ are worked out from the molar mass of the structure shown.

Legend:
[1] = tested on: Entamoeba histolytica; test: Antiprotozoal activity against Entamoeba histolytica HM-1:IMSS trophozoites after 48 hrs by MTT/PMS assay; assay type: functional, organism-based
[2] = tested on: Giardia intestinalis; test: Antiprotozoal activity against Giardia lamblia IMSS:0989:1 after 48 hrs by MTT/PMS assay; assay type: functional, organism-based; details: Giardia duodenalis, IMSS:0989:1, 48 h

| Structure (SMILES) | IC50 [1] [µg/mL] | IC50 [2] [µg/mL] |
| --- | --- | --- |
| CC1(C)CC[C@]2(CO)CC[C@]3(C)C(=CC[C@@H]4[C@@]5(C)CC[C@H](O)C(C)(C)[C@@H]5CC[C@]43C)[C@@H]2C1 [ERYTHRODIOL] | 12.7 (≈ 28.7 µM) | 29.9 (≈ 67.5 µM) |
| O=c1c(O[C@@H]2O[C@H](CO)[C@@H](O)[C@H](O)[C@H]2O)c(-c2ccc(O)cc2)oc2cc(O)cc(O)c12 [ASTRAGALIN] | 61.2 (≈ 136 µM) | 47.5 (≈ 106 µM) |
| O=C(/C=C/c1ccc(O)c(O)c1)OC[C@H]1O[C@@H](Oc2c(-c3ccc(O)c(O)c3)oc3cc(O)cc(O)c3c2=O)[C@H](O)[C@@H](O)[C@@H]1O | 14 (≈ 22.3 µM) | 105 (≈ 167 µM) |
| C=C1CC[C@H]2O[C@@]2(C)CC[C@@H]2[C@@H]1CC2(C)C | 71.3 (≈ 324 µM) | 53.8 (≈ 244 µM) |
| C[C@@H]1O[C@@H](OC[C@H]2O[C@@H](Oc3c(-c4ccc(O)c(O)c4)oc4cc(O)cc(O)c4c3=O)[C@H](O)[C@@H](O)[C@@H]2O)[C@H](O)[C@H](O)[C@H]1O [RUTIN] | 120 (≈ 196 µM) | 179 (≈ 293 µM) |
| O=c1c(O[C@@H]2O[C@H](CO)[C@@H](O)[C@H](O)[C@H]2O)c(-c2ccc(O)c(O)c2)oc2cc(O)cc(O)c12 [ISOQUERCETIN] | 14.7 (≈ 31.7 µM) | 87.3 (≈ 188 µM) |
| COc1cc(-c2oc3cc(O)cc(O)c3c(=O)c2O[C@@H]2O[C@H](CO[C@@H]3O[C@@H](C)[C@H](O)[C@@H](O)[C@H]3O)[C@@H](O)[C@H](O)[C@H]2O)ccc1O [NARCISSIN] | 17.2 (≈ 27.5 µM) | 94.7 (≈ 152 µM) |
| COc1cc(-c2oc3cc(O)cc(O)c3c(=O)c2O[C@@H]2O[C@H](COC(=O)/C=C/c3ccc(O)c(O)c3)[C@H](O)[C@H](O)[C@H]2O)ccc1O | 47.7 (≈ 74.5 µM) | 15.3 (≈ 23.9 µM) |
| CC[C@H]1CN2CCc3cc(OC)c(OC)cc3[C@@H]2C[C@@H]1C[C@H]1NCCc2cc(OC)c(OC)cc21 [EMETINE] | 1.05 (≈ 2.18 µM) | 0.41 (≈ 0.853 µM) |
| C[C@@H]1O[C@@H](OC[C@H]2O[C@@H](Oc3c(-c4ccc(O)cc4)oc4cc(O)cc(O)c4c3=O)[C@H](O)[C@@H](O)[C@@H]2O)[C@H](O)[C@H](O)[C@H]1O [NICOTIFLOROSIDE] | 30.9 (≈ 52 µM) | 22.5 (≈ 37.8 µM) |
| O=C(/C=C/c1ccc(O)c(O)c1)OC[C@H]1O[C@@H](Oc2c(-c3ccc(O)cc3)oc3cc(O)cc(O)c3c2=O)[C@H](O)[C@@H](O)[C@H]1O | 30 (≈ 49.1 µM) | 47 (≈ 77 µM) |
